Measurements published in PubChem BioAssay AID248 (DTP/NCI, 2004).
Where “and” joins values, the source holds several entries; their conditions need not be identical. Equal values may be shown once. Inconclusive results and toxic doses are left out. Cut-off read from the data, not from the text of the source: active = T/C of 150% or more; inactive = T/C below 125%.

Test system: L1210 leukemia ip in BDF1 mice, survival T/C
Test: NCI In Vivo Anticancer Drug Screen. Data for tumor model L1210 Leukemia (intraperitoneal) in B6D2F1 (BDF1) mice
Conditions: endpoint: mean survival time, higher = longer survival
Procedure, shortened: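 Value reflects the ratio of survival in compound-treated mice to survival in vehicle-treated controls, with both groups carrying the same transplanted tumor.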

[1] = dose: 100.0 mg/kg/injection, schedule: Q01DX009 (ip), vehicle: saline with Tween-80
[2] = dose: 100.0 mg/kg/injection, schedule: Q04DX003 (ip), vehicle: saline with Tween-80
[3] = dose: 200.0 mg/kg/injection, schedule: Q01DX009 (ip), vehicle: saline with Tween-80
[4] = dose: 200.0 mg/kg/injection, schedule: Q04DX003 (ip), vehicle: saline with Tween-80
[5] = dose: 400.0 mg/kg/injection, schedule: Q01DX009 (ip), vehicle: saline with Tween-80
[6] = dose: 400.0 mg/kg/injection, schedule: Q04DX003 (ip), vehicle: saline with Tween-80
[7] = dose: 100.0 mg/kg/injection, schedule: Q01DX001 (ip), vehicle: Klucel (hydroxypropylcellulose) (HPC)
[8] = dose: 200.0 mg/kg/injection, schedule: Q01DX001 (ip), vehicle: Klucel (hydroxypropylcellulose) (HPC)
[9] = dose: 400.0 mg/kg/injection, schedule: Q01DX001 (ip), vehicle: Klucel (hydroxypropylcellulose) (HPC)
[10] = dose: 100.0 mg/kg/injection, schedule: Q01DX009 (ip), vehicle: Klucel (hydroxypropylcellulose) (HPC)
[11] = dose: 200.0 mg/kg/injection, schedule: Q01DX009 (ip), vehicle: Klucel (hydroxypropylcellulose) (HPC)
[12] = dose: 400.0 mg/kg/injection, schedule: Q01DX009 (ip), vehicle: Klucel (hydroxypropylcellulose) (HPC)

Measured: T/C

O=C1C=CC(=O)N1CCCCN1C(=O)C=CC1=O
inactive: dose: 11.1 mg/kg/injection, schedule: Q01DX Z (ip), vehicle: methylcellulose (MC) 96 % of control | dose: 16.6 mg/kg/injection, schedule: Q01DX Z (ip), vehicle: methylcellulose (MC) 106 % of control | dose: 25.0 mg/kg/injection, schedule: Q01DX Z (ip), vehicle: methylcellulose (MC) 93 % of control

CCOc1cc(/C=N/NC(=O)C(O)C(O)C(O)C(O)CO)ccc1O (centres undefined)
inactive: [1] 98 % of control and 103 % of control | dose: 100.0 mg/kg/injection, schedule: Q04DX002 (ip), vehicle: saline with Tween-80 100 % of control and 90 % of control | [2] 95 % of control | [3] 95 % of control and 91 % of control | dose: 200.0 mg/kg/injection, schedule: Q04DX002 (ip), vehicle: saline with Tween-80 108 % of control and 116 % of control | [4] 95 % of control | [5] 88 % of control and 90 % of control | dose: 400.0 mg/kg/injection, schedule: Q04DX002 (ip), vehicle: saline with Tween-80 90 % of control and 91 % of control | [6] 93 % of control

Cc1ccc(-c2ccc(-c3ccc(C)cc3)o2)cc1
inactive: [7] 95 % of control | [8] 102 % of control and 90 % of control | [9] 94 % of control

O=C1C=CC(=Nc2ccc(Cl)cc2)O1
inactive: [1] 104 % of control | [3] 102 % of control | [5] 97 % of control

c1ccc(Nc2nc3ccccc3o2)cc1
inactive: [7] 93 % of control | [10] 92 % of control | [8] 89 % of control | [11] 95 % of control | [9] 86 % of control | [12] 94 % of control

COC(=O)C1(C(=O)OC)CC1CCl (centres undefined)
inactive: [1] 96 % of control | [2] 101 % of control | [3] 105 % of control | [4] 101 % of control | [5] 93 % of control | [6] 95 % of control

CC(=O)Oc1ccc(NC(=O)c2ccccc2)c2ccccc12
inactive: dose: 100.0 mg/kg/injection, schedule: Q01DX001 (ip), vehicle: carboxymethylcellulose (CMC) 110 % of control | dose: 200.0 mg/kg/injection, schedule: Q01DX001 (ip), vehicle: carboxymethylcellulose (CMC) 100 % of control | dose: 400.0 mg/kg/injection, schedule: Q01DX001 (ip), vehicle: carboxymethylcellulose (CMC) 94 % of control

O=C(COc1ccc(Cl)c(Cl)c1)N(Cc1ccccc1)Cc1cccnc1
inactive: [7] 99 % of control | [10] 98 % of control | dose: 100.0 mg/kg/injection, schedule: Q04DX003 (ip), vehicle: Klucel (hydroxypropylcellulose) (HPC) 100 % of control | [8] 96 % of control | [11] 116 % of control | dose: 200.0 mg/kg/injection, schedule: Q04DX003 (ip), vehicle: Klucel (hydroxypropylcellulose) (HPC) 96 % of control | [9] 96 % of control | [12] 100 % of control | dose: 400.0 mg/kg/injection, schedule: Q04DX003 (ip), vehicle: Klucel (hydroxypropylcellulose) (HPC) 98 % of control

O=C(COc1cccc([N+](=O)[O-])c1)Nc1ccc(S(=O)(=O)F)cc1
inactive: [10] 102 % of control | [11] 100 % of control | [12] 100 % of control

O=C(O)COc1nc2ccccc2s1
inactive: [10] 95 % of control | dose: 100.0 mg/kg/injection, schedule: Q04DX003 (ip), vehicle: alcohol 105 % of control | [11] 96 % of control | dose: 200.0 mg/kg/injection, schedule: Q04DX003 (ip), vehicle: alcohol 98 % of control | [12] 88 % of control | dose: 400.0 mg/kg/injection, schedule: Q04DX003 (ip), vehicle: alcohol 94 % of control

COc1cc(C(=O)O)c(Br)c(OC)c1OC
inactive: dose: 100.0 mg/kg/injection, schedule: Q01DX001 (ip), vehicle: saline with Tween-80 103 % of control | dose: 200.0 mg/kg/injection, schedule: Q01DX001 (ip), vehicle: saline with Tween-80 101 % of control | dose: 400.0 mg/kg/injection, schedule: Q01DX001 (ip), vehicle: saline with Tween-80 114 % of control
